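All cell lines were grown in 96-well plates and treated with compound for 48 hours. GI50 is the concentration that inhibits growth by half.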 The source made the active and inactive calls. No stated cut-off is given here; in the data, active = GI50 up to about 1.1 µM and inactive = higher. Non-standard residues stand in square brackets, D forms with d. Residues, ends and D or L forms follow the SMILES beside them. ξ: configuration not given here. Pentanoyl(2-O,4-OH,5-Cl) = O=C(O)C(O)CC(O)CCl; Ile(3ξ) = CCC(C)[C@H](N)C(=O)O; NMeV = CN[C@H](C(=O)O)C(C)C; NMeA = CN[C@@H](C)C(=O)O; βAla = NCCC(=O)O
Columns and labels:
Test in all cases: inhibition of tumour cell growth, NCI panel, 48 h
A498 = test system: A498
HCT-116 = test system: HCT-116
HOP-92 = test system: HOP-92
HT-29 = test system: HT-29
IGROV-1 = test system: IGROV-1
KM12 = test system: KM12
Malme-3M = test system: Malme-3M
NCI-H23 = test system: NCI-H23
NCI-H460 = test system: NCI-H460
RXF 393 = test system: RXF 393
SF-268 = test system: SF-268
SF-295 = test system: SF-295
SK-MEL-28 = test system: SK-MEL-28
SK-MEL-2 = test system: SK-MEL-2
SK-MEL-5 = test system: SK-MEL-5
SNB-19 = test system: SNB-19
SW-620 = test system: SW-620
UO-31 = test system: UO-31
HL-60 = test system: HL-60
SK-OV-3 = test system: SK-OV-3

Row | SMILES | GI50 (A498) | GI50 (HCT-116) | GI50 (HOP-92) | GI50 (HT-29) | GI50 (IGROV-1) | GI50 (KM12) | GI50 (Malme-3M) | GI50 (NCI-H23) | GI50 (NCI-H460) | GI50 (RXF 393) | GI50 (SF-268) | GI50 (SF-295) | GI50 (SK-MEL-28) | GI50 (SK-MEL-2) | GI50 (SK-MEL-5) | GI50 (SNB-19) | GI50 (SW-620) | GI50 (UO-31) | GI50 (HL-60) | GI50 (SK-OV-3)
1 | Nc1ccc(N(S(=O)(=O)c2ccccc2)S(=O)(=O)c2ccccc2)c(Cl)c1 | 25.2 µM (inactive) | 55.2 µM (inactive) | 70.3 µM (inactive) | 37.8 µM (inactive) | 62.1 µM (inactive) | 24.2 µM (inactive) | 42.5 µM (inactive) | 55.8 µM (inactive) | 34.8 µM (inactive) | > 100 µM (inactive) | 69.2 µM (inactive) | 32.2 µM (inactive) | 68.9 µM (inactive) | 31.3 µM (inactive) | 20.1 µM (inactive) | > 100 µM (inactive) | 42.9 µM (inactive) | > 100 µM (inactive) | – | –
2 | O=C1CCCCC2N(C(c3ccccc3)c3ccccc3)CC[C@@]12c1ccccc1.O=C1CCCC[C@H]2N(C(c3ccccc3)c3ccccc3)CC[C@@]12c1ccccc1 (some centres undefined) | > 10 µM (inactive) | 2.99 µM (inactive) | 2.56 µM (inactive) | 4 µM (inactive) | > 10 µM (inactive) | > 10 µM (inactive) | – | 4.8 µM (inactive) | 9.55 µM (inactive) | 4.32 µM (inactive) | > 10 µM (inactive) | > 10 µM (inactive) | > 10 µM (inactive) | – | 4.57 µM (inactive) | > 10 µM (inactive) | – | 8.05 µM (inactive) | 2.87 µM (inactive) | > 10 µM (inactive)
3 | CN(C)CCCNC(=O)N/N=C/c1ccccc1 | > 100 µM (inactive) | > 100 µM (inactive) | – | > 100 µM (inactive) | > 100 µM (inactive) | > 100 µM (inactive) | > 100 µM (inactive) | – | > 100 µM (inactive) | > 100 µM (inactive) | > 100 µM (inactive) | > 100 µM (inactive) | > 100 µM (inactive) | > 100 µM (inactive) | > 100 µM (inactive) | > 100 µM (inactive) | > 100 µM (inactive) | > 100 µM (inactive) | > 100 µM (inactive) | > 100 µM (inactive)
4 | Cc1ccc(S(=O)(=O)N(C=O)N=C2CCN(Cc3ccccc3)CC2)cc1 | > 100 µM (inactive) | > 100 µM (inactive) | – | > 100 µM (inactive) | > 100 µM (inactive) | > 100 µM (inactive) | > 100 µM (inactive) | > 100 µM (inactive) | > 100 µM (inactive) | > 100 µM (inactive) | – | > 100 µM (inactive) | – | > 100 µM (inactive) | > 100 µM (inactive) | > 100 µM (inactive) | > 100 µM (inactive) | > 100 µM (inactive) | > 100 µM (inactive) | > 100 µM (inactive)
5 | CSCCC(NC(=O)OCc1ccccc1)P(=O)(O)c1ccccc1 (centres undefined) | – | > 100 µM (inactive) | > 100 µM (inactive) | > 100 µM (inactive) | > 100 µM (inactive) | – | – | > 100 µM (inactive) | > 100 µM (inactive) | – | – | > 100 µM (inactive) | > 100 µM (inactive) | > 100 µM (inactive) | > 100 µM (inactive) | > 100 µM (inactive) | > 100 µM (inactive) | > 100 µM (inactive) | > 100 µM (inactive) | > 100 µM (inactive)
6 | CCOP(=O)(CN=C(c1ccccc1)c1ccccc1)OCC | 73.8 µM (inactive) | > 100 µM (inactive) | > 100 µM (inactive) | > 100 µM (inactive) | > 100 µM (inactive) | – | – | > 100 µM (inactive) | > 100 µM (inactive) | – | – | > 100 µM (inactive) | > 100 µM (inactive) | > 100 µM (inactive) | > 100 µM (inactive) | > 100 µM (inactive) | > 100 µM (inactive) | > 100 µM (inactive) | 87.1 µM (inactive) | > 100 µM (inactive)
7 | C=CCC12CC(=O)C=C1CCC1(C2)OCCO1 (centres undefined) | > 100 µM (inactive) | > 100 µM (inactive) | – | – | > 100 µM (inactive) | > 100 µM (inactive) | > 100 µM (inactive) | – | > 100 µM (inactive) | > 100 µM (inactive) | > 100 µM (inactive) | – | > 100 µM (inactive) | > 100 µM (inactive) | > 100 µM (inactive) | > 100 µM (inactive) | > 100 µM (inactive) | > 100 µM (inactive) | > 100 µM (inactive) | > 100 µM (inactive)
8 | N#Cc1c(NC(=S)NC(=O)c2ccccc2)nc2c(c1-c1ccccc1)CCCC2 | – | > 100 µM (inactive) | – | > 100 µM (inactive) | > 100 µM (inactive) | > 100 µM (inactive) | > 10 µM (inactive) | > 100 µM (inactive) | > 100 µM (inactive) | 17.8 µM (inactive) | 0.299 µM (active) | 34.9 µM (inactive) | 78.7 µM (inactive) | – | 73.6 µM (inactive) | > 100 µM (inactive) | > 100 µM (inactive) | 88.7 µM (inactive) | > 100 µM (inactive) | 31.4 µM (inactive)
9 | Cc1c(Cl)c(=O)oc2cc(OCC(=O)c3ccccc3)ccc12 | > 100 µM (inactive) | – | 97.5 µM (inactive) | > 100 µM (inactive) | > 100 µM (inactive) | > 100 µM (inactive) | > 100 µM (inactive) | > 100 µM (inactive) | > 100 µM (inactive) | > 100 µM (inactive) | > 100 µM (inactive) | > 100 µM (inactive) | > 100 µM (inactive) | > 100 µM (inactive) | > 100 µM (inactive) | > 100 µM (inactive) | > 100 µM (inactive) | > 100 µM (inactive) | > 100 µM (inactive) | > 100 µM (inactive)
10 | O=C1C=C(Sc2ccccc2)c2nccc3c2c1nc1ccccc13 | – | 15.1 µM (inactive) | 17.9 µM (inactive) | 11.2 µM (inactive) | 11.2 µM (inactive) | 16.7 µM (inactive) | 12.2 µM (inactive) | 23.6 µM (inactive) | 23.6 µM (inactive) | – | 12.4 µM (inactive) | 29.4 µM (inactive) | 19.3 µM (inactive) | 14.2 µM (inactive) | – | 37.2 µM (inactive) | 14.8 µM (inactive) | 12.8 µM (inactive) | 2.08 µM (inactive) | 80 µM (inactive)
11 | N#CCCC(CCC#N)(CCC#N)NO | – | > 100 µM (inactive) | > 100 µM (inactive) | > 100 µM (inactive) | > 100 µM (inactive) | > 100 µM (inactive) | > 100 µM (inactive) | > 100 µM (inactive) | > 100 µM (inactive) | > 100 µM (inactive) | > 100 µM (inactive) | > 100 µM (inactive) | – | > 100 µM (inactive) | > 100 µM (inactive) | > 100 µM (inactive) | > 100 µM (inactive) | > 100 µM (inactive) | > 100 µM (inactive) | > 100 µM (inactive)
12 | O=[N+]([O-])c1cccc2nccc(NCC(O)CO)c12 (centres undefined) | 7.66 µM (inactive) | 13.4 µM (inactive) | 20.6 µM (inactive) | 14.7 µM (inactive) | 16.1 µM (inactive) | 14 µM (inactive) | 14.4 µM (inactive) | 16 µM (inactive) | 8.18 µM (inactive) | 11.6 µM (inactive) | 19.8 µM (inactive) | 21 µM (inactive) | 15.7 µM (inactive) | 11.4 µM (inactive) | 13.1 µM (inactive) | – | 14.5 µM (inactive) | 18.2 µM (inactive) | 1.36 µM (inactive) | 25.4 µM (inactive)
13 | CC(C(=O)NCCNC(=O)CCCC(=O)N(C)O)C(=O)NCCNC(=O)CCCC(=O)N(C)O | > 100 µM (inactive) | – | > 100 µM (inactive) | > 100 µM (inactive) | > 100 µM (inactive) | > 100 µM (inactive) | > 100 µM (inactive) | > 100 µM (inactive) | > 100 µM (inactive) | > 100 µM (inactive) | > 100 µM (inactive) | > 100 µM (inactive) | 20.1 µM (inactive) | > 100 µM (inactive) | > 100 µM (inactive) | > 100 µM (inactive) | > 100 µM (inactive) | > 100 µM (inactive) | > 100 µM (inactive) | > 100 µM (inactive)
14 | CCC(C)[C@@H]1NC(=O)[C@@H]2CCCN2C(=O)C(CC(O)CCl)OC(=O)CCNC(=O)[C@H](C)N(C)C(=O)[C@H](C(C)C)N(C)C1=O (some centres undefined) (cyclo([Ile(3ξ)][NMeV][NMeA][βAla][Pentanoyl(2-O,4-OH,5-Cl)]P)) | > 29.1 µM (inactive) | 13.9 µM (inactive) | 1.09 µM (active) | 3.12 µM (inactive) | > 100 µM (inactive) | > 61.9 µM (inactive) | 12.3 µM (inactive) | > 100 µM (inactive) | > 31.4 µM (inactive) | > 100 µM (inactive) | > 100 µM (inactive) | 2.31 µM (inactive) | – | 0.347 µM (active) | 0.248 µM (active) | > 100 µM (inactive) | > 58.9 µM (inactive) | > 93.3 µM (inactive) | 44.1 µM (inactive) | > 100 µM (inactive)
15 | Nc1ccccc1Sc1ccc(Cl)cc1 | 54.2 µM (inactive) | 34.3 µM (inactive) | 20 µM (inactive) | 19.1 µM (inactive) | 52 µM (inactive) | 33.4 µM (inactive) | 26.1 µM (inactive) | 26.2 µM (inactive) | 24.3 µM (inactive) | 13.5 µM (inactive) | 39.6 µM (inactive) | 27.9 µM (inactive) | 28.9 µM (inactive) | 27.9 µM (inactive) | 17.8 µM (inactive) | – | 37.1 µM (inactive) | 17.9 µM (inactive) | 18.7 µM (inactive) | 40.4 µM (inactive)

Reference: ChEMBL document CHEMBL1201862, “PubChem BioAssay data set” (2004)
